In patent US4396770A, “1-[3-(6-Fluoro-1,2-benzisoxazol-3-yl)propyl]-4-hydroxy -4-phenylpiperidines” (Hoechst-Roussel Pharmaceuticals Inc., priority 1982, dated 1983):
Where two headings read alike, the source gives them in different places.

What was measured:
[1] = tested on: phenyl-para-quinone induced writhes; assay: phenyl-para-quinone writhing assay in mice (analgesia); format: in vivo; settings: Mus musculus, sc, subcutaneous, estimated dose for 50% reduction in phenyl-para-quinone induced writhes, read-out: Analgesic Activity (ED50 mg/kg)
Description: Exptl. Biol. Med., 95, 729 (1953)]. Presented in Table 1 is the analgesic activity of representative compounds of the invention and two standards, expressed as the estimated subcutaneous dose at which the mice experience a 50% reduction in phenyl-para-quinone induced writhes, i.e., the ED50 -value.

[2] = tested on: apomorphine-induced climbing; assay: climbing mice assay (antipsychotic activity); format: in vivo, CK-1 male mice; settings: Mus musculus, ip
Method: The 1-[3-(6-fluoro-1,2-benzisoxazol-3-yl)propyl]-4-hydroxy-4-phenylpiperidinesof the present invention are useful for treating psychoses by virtue of their ability to block apomorphine-induced climbing in mammals.
Antipsychotic activity is determined in the climbing mice assay by a method similar to those described by P. Protais et al., Psychopharmacol., 50, 1 (1976) and B. Costall, Eur. J. Pharmacol., 50, 39 (1978).
The subject CK-1 male mice (23-27 grams) are group-housed under standard laboratory conditions. The mice are individually placed in wire mesh stick cages (4"×4"×10") and are allowed one hour for adaptation and exploration of the new environment. Then apomorphine is injected subcutaneously at 1.5 mg/kg, a dose causing climbing in all subjects for 30 minutes. Compounds to be tested for antipsychotic activity are injected intraperitoneally 30 minutes prior to the apomorphine challenge at a screening dose of 10 mg/kg.
For evaluation of climbing, 3 readings are taken at 10, 20 and 30 minutes after apomorphine administration according to the following scale:
Mice consistently climbing before the injection of apormorphine will be discarded.
With full-developed apomorphine climbing, the animals are hanging onto the cage walls, rather motionless, over longer periods of time. By contrast, climbs due to mere motor stimulation usually only last a few seconds.
The climbing scores are individually totaled (maximal score: 6 per mouse over 3 readings) and the total score of the control group (vehicle intraperitoneally--apomorphine subcutaneously) is set to 100%. ED50 values with 95% confidence limits are calculated by a Linear Regression Analysis. Antipsychotic activity expressed as the ED50 value of representative 1-[3-(6-fluoro-1,2-benzisoxazol-3-yl)propyl]-4-hydroxy-4-phenylpiperidinesas well as two standard antipsychotics are presented in Table II.

[3] = read-out: Antipsychotic Activity ED50 (mg/kg)

SMILES | ED50 [1] | ED50 [2, 3] | ED50 ([2]; mice, intraperitoneal 30 minutes prior to apomorphine 1.5 mg/kg subcutaneously, climbing scores at 10, 20 and 30 minutes, read-out: Antipsychotic Activity ED50)
OC1(c2ccccc2)CCN(CCCc2noc3cc(F)ccc23)CC1 [Example 1, 1-[3-(6-Fluoro-1,2-benzisoxazol-3-yl)propyl]-4-hydroxy-4-phenylpiperidine] | 5.9 mg/kg | 9.6 mg/kg | –
Cl.OC1(c2cccc(Cl)c2)CCN(CCCc2noc3cc(F)ccc23)CC1 [Example 2, 4-(3-Chlorophenyl)-1-[3-(6-fluoro-1,2-benzisoxazol-3-yl)propyl]-4-hydroxypiperidine hydrochloride] | 0.8 mg/kg | 0.8 mg/kg | –
OC1(c2ccc(Cl)cc2)CCN(CCCc2noc3cc(F)ccc23)CC1 [Example 3, 4-(4-Chlorophenyl)-1-[3-(6-fluoro-1,2-benzisoxazol-3-yl)propyl]-4-hydroxypiperidine] | – | 0.51 mg/kg | –
OC1(c2ccc(F)cc2)CCN(CCCc2noc3cc(F)ccc23)CC1 [Example 4, 1-[3-(6-Fluoro-1,2-benzisoxazol-3-yl)propyl]-4-(4-fluorophenyl)-4-hydroxypiperidine] | 6.2 mg/kg | 0.8 mg/kg | –
Cc1ccccc1C1(O)CCN(CCCc2noc3cc(F)ccc23)CC1.Cl [Example 5, 1-[3-(6-Fluoro-1,2-benzisoxazol-3-yl)propyl]-4-hydroxy-4-(2-methylphenyl)piperidine hydrochloride] | – | 8.3 mg/kg | –
Cc1ccc(C2(O)CCN(CCCc3noc4cc(F)ccc34)CC2)cc1 [Example 6] | – | 0.56 mg/kg | –
COc1ccc(C2(O)CCN(CCCc3noc4cc(F)ccc34)CC2)cc1.Cl [Example 7, 1-[3-(6-Fluoro-1,2-benzisoxazol-3-yl)propyl]-4-hydroxy-4-(4-methoxyphenyl)piperidine hydrochloride] | 3.8 mg/kg | – | –
Cl.OC1(c2cccc(C(F)(F)F)c2)CCN(CCCc2noc3cc(F)ccc23)CC1 [Example 8, 1-[3-(6-Fluoro-1,2-benzisoxazol-3-yl)propyl]-4-hydroxy-4-(3-trifluoromethylphenyl)piperidine hydrochloride] | 1 mg/kg | 0.25 mg/kg | –
OC1(c2ccc(C(F)(F)F)cc2)CCN(CCCc2noc3cc(F)ccc23)CC1 [Example 9, 1-[3-(6-Fluoro-1,2-benzisoxazol-3-yl)propyl]-4-hydroxy-4-(4-trifluoromethylphenyl)piperidine] | – | 3.1 mg/kg | –
O=C(CCCN1CCC(O)(c2ccc(Cl)cc2)CC1)c1ccc(F)cc1 [haloperidol, reference compound] | – | 0.11 mg/kg | –
CC(C)=CCN1CCC2(C)c3cc(O)ccc3CC1C2C (centres unmarked) [pentazocin, reference compound] | 1.3 mg/kg | – | –
CCC(=O)O[C@](Cc1ccccc1)(c1ccccc1)[C@H](C)CN(C)C [propoxyphene, reference compound] | 3.9 mg/kg | – | –
CCN1CCCC1CNC(=O)c1cc(S(N)(=O)=O)ccc1OC (centres unmarked) [sulpiride, reference compound] | – | – | 4.5 mg/kg
